Data on 19 compounds can be found in patent publication US20020169166A1, “Benzimidazoles that are useful in treating sexual dysfunction” (priority 2001, published 2002).

The test system of one series is Male Fitch ferrets. The arrangement: species or system ferret. To be noted: in vivo, sc. The procedure: Male Fitch ferrets (body weights 1.0-1.5 kg) were obtained from Marshall Farms. Ferrets were fasted overnight before experimentation. Apomorphine or a compound of the present invention was administrated subcutaneously; animals were placed individually in observation cages and the drug-induced emesis and signs of nausea were determined (by direct observation) for a period of 90 minutes following drug injection. Nausea was characterized by behaviors such as licking, gagging, backing, head burying, and intense abdominal grooming. Emesis was usually preceded by these behaviors and was characterized by rhythmic abdominal contractions which were associated with vomiting or retching movement.
Sterile saline was used as vehicle. Six animals were used per dose.

For the next series, the system named is Wistar rats. The series is described as follows: Rat Penile Erection Model. It is filed as in vivo. The note with it: for Induced Penile Erection in Rats, Incidence (%): subcutaneous, animals with 1 or more erections in 60 minutes; for induced penile erections in rats (significance): subcutaneous administration, doses of 0.01 μmol/kg to 0.10 μmol/kg. On the procedure:
Wistar rats were used as a primary animal model to study penile erection in vivo. All experiments were carried out between 9:00 AM and 3:00 PM in a diffusely illuminated testing room with a red light. Animals were weighed and allowed to adapt to the testing room for 60 minutes before the beginning of experiments. Rats were placed individually in a transparent cage (20×30×30 cm) after drug injection.
(L)-Ascorbic acid in saline (1 mg/mL) was used as vehicle. Twelve animals were used per dose.

For `c1ccc(N2CCN(Cc3nc4ccccc4[nH]3)CC2)nc1` [2-[(4-pyridin-2-ylpiperazin-1-yl)methyl]-1H-benzimidazole], in the series with Male Fitch ferrets, the “emesis in ferrets (in words)” value was “did not induce emesis”. In addition, the “Induced Penile Erection in Rats, Incidence (%)” value (“Induced Penile Erection … (%)” below) with Wistar rats (dose 0.003 μmol/kg, Table 1) worked out at 25%; in the series on Wistar rats (dose 0.01 μmol/kg, Table 1) it was 50%; in the series with Wistar rats (dose 0.03 μmol/kg, Table 1), 83%; in the series on Wistar rats (dose 0.10 μmol/kg, Table 1), 58%. In addition, the “induced penile erections in rats (significance)” value in the series with Wistar rats is on record as “statistically significant”.
As to `Oc1ccc(N2CCN(Cc3nc4ccccc4[nH]3)CC2)nc1` [6-[4-(1H-benzimidazol-2-ylmethyl)piperazin-1-yl]pyridin-3-ol], the melting point was in the range of 144 to 145 °C. For the same compound, in the series on Wistar rats (dose 0.01 μmol/kg, Table 2), the “Induced Penile Erection … (%)” value came to 42%. The “Induced Penile Erection … (%)” value in the series on Wistar rats (dose 0.03 μmol/kg, Table 2) worked out at 58%. Moreover, in the series with Wistar rats (dose 0.1 μmol/kg, Table 2), the “Induced Penile Erection … (%)” value is 58%. Further, the “Induced Penile Erection … (%)” value in the series on Wistar rats (dose 0.3 μmol/kg, Table 2) is 33%. In the series on Wistar rats, the “induced penile erections in rats (significance)” value is “statistically significant”.
`CN1CCc2cccc3c2[C@H]1Cc1ccc(O)c(O)c1-3` [Apomorphine, (6aR) 5,6,6a,7-tetrahydro-6-methyl-4H-dibenzo[de,g]quinoline-10,11-diol, reference compound]: the “incidence of rat penile erections” value in the series on Wistar rats (positive control of Table 1, dose 0.1 μmol/kg) came out at 83%; with Wistar rats (positive control of Table 2, dose 0.1 μmol/kg), 93%.
For the compound `c1cnc(N2CCN(Cc3nc4ccccc4[nH]3)CC2)nc1` [Example 2, 2-[(4-pyrimidin-2-ylpiperazin-1-yl)methyl]-1H-benzimidazole], the melting point fell in the range of 198 to 200 °C.
For the compound `N#Cc1cccnc1N1CCN(Cc2nc3ccccc3[nH]2)CC1` [Example 4, 2-[4-(1H-benzimidazol-2-ylmethyl)piperazin-1-yl]nicotinonitrile], the melting point lay within 208 to 210 °C.
In the case of `c1ccc2[nH]c(CN3CCN(c4nccs4)CC3)nc2c1` [Example 7, 2-{[4-(1,3-thiazol-2-yl)piperazin-1-yl]methyl}-1H-benzimidazole], the melting point is 203 to 205 °C.
Same read-out and setting: the value for `O=C(N1CCCC1)n1c(CN2CCN(c3ccccn3)CC2)nc2ccccc21` [Example 9, 2-[(4-pyridin-2-ylpiperazin-1-yl)methyl]-1-(pyrrolidin-1-ylcarbonyl)-1H-benzimidazole] was 120 to 121 °C; that for `CN(C)C(=O)n1c(CN2CCN(c3ccccn3)CC2)nc2ccccc21` [Example 10, N,N-dimethyl-2-[(4-pyridin-2-ylpiperazin-1-yl)methyl]-1H-benzimidazole-1-carboxamide] was 174 to 176 °C.
The compound `N#Cc1ccccc1N1CCN(Cc2nc3ccccc3[nH]2)CC1` [Example 12, 2-[4-(1H-benzimidazol-2-ylmethyl)piperazin-1-yl]benzonitrile] came in with a melting point of 236 to 237 °C.
Compound `Clc1ccccc1N1CCN(Cc2nc3ccccc3[nH]2)CC1` [Example 13, 2-{[4-(2-chlorophenyl)piperazin-1-yl]methyl}-1H-benzimidazole] came in with a melting point of 245 to 246 °C.
`Fc1ccccc1N1CCN(Cc2nc3ccccc3[nH]2)CC1` [Example 14, 2-{[4-(2-fluorophenyl)piperazin-1-yl]methyl}-1H-benzimidazole] yielded a melting point of 262 to 264 °C.
Compound `Oc1ccc(N2CCN(Cc3nc4ccccc4[nH]3)CC2)cc1` [Example 17, 4-[4-(1H-benzimidazol-2-ylmethyl)piperazin-1-yl]phenol] came in with a melting point of 206 to 209 °C.
`CSc1ccccc1N1CCN(Cc2nc3ccccc3[nH]2)CC1` [Example 18, 2-({4-[2-(methylthio)phenyl]piperazin-1-yl}methyl)-1H-benzimidazole] had a melting point of 214 to 216 °C.
`CCOc1ccccc1N1CCN(Cc2nc3ccccc3[nH]2)CC1` [Example 19, 2-{[4-(2-ethoxyphenyl)piperazin-1-yl]methyl}-1H-benzimidazole] returned a melting point of 95 to 100 °C.
The compound `Oc1ccccc1N1CCN(Cc2nc3ccccc3[nH]2)CC1` [Example 20, 2-[4-(1H-benzimidazol-2-ylmethyl)piperazin-1-yl]phenol] registered a melting point of 208 to 216 °C.
On the same count and under the same terms, the value for `CC1CN(c2ccccn2)CCN1Cc1nc2ccccc2[nH]1` (stereo not drawn) [Example 24, 2-[(2-methyl-4-pyridin-2-ylpiperazin-1-yl)methyl]-1H-benzimidazole] was 207 to 209 °C; that for `C[C@H]1CN(c2ccccn2)CCN1Cc1nc2ccccc2[nH]1` [Example 25, 2-{[(2S)-2-methyl-4-pyridin-2-ylpiperazin-1-yl]methyl}-1H-benzimidazole] was 149 to 151 °C; that for `C[C@@H]1CN(c2ccccn2)CCN1Cc1nc2ccccc2[nH]1` [Example 26, 2-{[(2R)-2-methyl-4-pyridin-2-ylpiperazin-1-yl]methyl}-1H-benzimidazole] was 151 to 153 °C.
On to `Fc1cccnc1N1CCN(Cc2nc3ccccc3[nH]2)CC1` [Example 28, 2-{[4-(3-fluoropyridin-2-yl)piperazin-1-yl]methyl}-1H-benzimidazole], for which the melting point lay in the range of 210 to 212 °C.
